ChEMBL document CHEMBL1201862, “PubChem BioAssay data set” (2004)
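How tested: cells in 96-well plates exposed to compound for 48 hours at five concentrations. At the GI50, growth is halved.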 The source made the active and inactive calls. Cut-off read from the data, not from the text of the source: active = GI50 up to about 1.1 µM and inactive = higher.

Columns and labels:
Experiment in all cases: DTP human tumour cell line panel, 48 h
A498 = system: A498
CCRF-CEM = system: CCRF-CEM
EKVX = system: EKVX
HCT-15 = system: HCT-15
HL-60 = system: HL-60
HOP-92 = system: HOP-92
HT-29 = system: HT-29
MCF7 = system: MCF7
NCI-H522 = system: NCI-H522
NCI/ADR-RES = system: NCI/ADR-RES
OVCAR-3 = system: OVCAR-3
OVCAR-5 = system: OVCAR-5
PC-3 = system: PC-3
RPMI-8226 = system: RPMI-8226
RXF 393 = system: RXF 393
SK-OV-3 = system: SK-OV-3
SN12C = system: SN12C
SR = system: SR
T47D = system: T47D
TK-10 = system: TK-10

Structure (SMILES)	GI50 (A498)	GI50 (CCRF-CEM)	GI50 (EKVX)	GI50 (HCT-15)	GI50 (HL-60)	GI50 (HOP-92)	GI50 (HT-29)	GI50 (MCF7)	GI50 (NCI-H522)	GI50 (NCI/ADR-RES)	GI50 (OVCAR-3)	GI50 (OVCAR-5)	GI50 (PC-3)	GI50 (RPMI-8226)	GI50 (RXF 393)	GI50 (SK-OV-3)	GI50 (SN12C)	GI50 (SR)	GI50 (T47D)	GI50 (TK-10)
Cc1cc(S(=O)(=O)Nc2nc3ccccc3nc2-c2cccc([N+](=O)[O-])c2)c(S)cc1Cl	14.4 µM (inactive)	23.5 µM (inactive)	22.1 µM (inactive)	43 µM	20.4 µM (inactive)	17.9 µM (inactive)	17.9 µM (inactive)	24 µM (inactive)	16.8 µM (inactive)	19.9 µM (inactive)	15.9 µM (inactive)	36.6 µM (inactive)	19.7 µM (inactive)	19.2 µM (inactive)	33.7 µM (inactive)	16.6 µM (inactive)	30 µM (inactive)	20.8 µM (inactive)	17.2 µM (inactive)	35.2 µM (inactive)
Cc1ccc(C)c(C2NC(=O)c3ccccc3N2)c1 (stereo not given)	3.62 µM (inactive)	0.753 µM (active)	5.07 µM (inactive)	0.515 µM	0.118 µM (active)	37.2 µM (inactive)	0.445 µM (active)	0.454 µM (active)	0.689 µM (active)	0.7 µM (active)	0.265 µM (active)	6.18 µM (inactive)	1.06 µM (active)	2.11 µM (inactive)	1.95 µM (inactive)	2.02 µM (inactive)	4.69 µM (inactive)	0.555 µM (active)	2.72 µM (inactive)	6.82 µM (inactive)
COc1ccc2nc3cccc([N+](=O)[O-])c3c(NCCO)c2c1	0.0507 µM (active)	0.0479 µM (active)	0.0238 µM (active)	0.00594 µM	0.0148 µM (active)	0.0195 µM (active)	0.00615 µM (active)	0.018 µM (active)	0.017 µM (active)	0.0182 µM (active)	0.0149 µM (active)	0.0203 µM (active)	0.0232 µM (active)	0.00235 µM (active)	0.0126 µM (active)	0.185 µM (active)	0.019 µM (active)	0.001 µM (active)	0.141 µM (active)	0.0336 µM (active)
O=C(OC1C#CCSCC#C/C=C\1)c1ccc2c(c1)C(=O)c1ccccc1C2=O (stereo not given)	33.3 µM (inactive)	> 100 µM (inactive)	64.7 µM (inactive)	> 100 µM	> 100 µM (inactive)	2.79 µM (inactive)	> 100 µM (inactive)	41.2 µM (inactive)	23.8 µM (inactive)	78.9 µM (inactive)	> 100 µM (inactive)	> 100 µM (inactive)	> 100 µM (inactive)	> 100 µM (inactive)	18.4 µM (inactive)	18.1 µM (inactive)	> 100 µM (inactive)	25.5 µM (inactive)	> 100 µM (inactive)	27.9 µM (inactive)
O=C1CC2(CCNCC2)C(=O)N1N1CCCCC1	> 100 µM (inactive)	> 100 µM (inactive)	> 100 µM (inactive)	> 100 µM	> 100 µM (inactive)	> 100 µM (inactive)	> 100 µM (inactive)	> 100 µM (inactive)	> 100 µM (inactive)	> 100 µM (inactive)	> 100 µM (inactive)	> 100 µM (inactive)	> 100 µM (inactive)	> 100 µM (inactive)	> 100 µM (inactive)	> 100 µM (inactive)	> 100 µM (inactive)	> 100 µM (inactive)	> 100 µM (inactive)	> 100 µM (inactive)
CC1OC(O)CC(N(C)C)C1O.CC1OC(O)CCC1O.CCC1CC(O)c2c(O)c3c(c(O)c2C1O)C(=O)c1cccc(O)c1C3=O (stereo not given)	0.0114 µM (active)	0.0223 µM (active)	0.0281 µM (active)	0.0381 µM	0.0305 µM (active)	0.01 µM (active)	0.0126 µM (active)	0.0325 µM (active)	0.0121 µM (active)	0.251 µM (active)	0.021 µM (active)	0.0375 µM (active)	0.0177 µM (active)	0.0208 µM (active)	0.0039 µM (active)	0.033 µM (active)	0.0353 µM (active)	0.0083 µM (active)	0.0242 µM (active)	0.0208 µM (active)
O=C1CCCCc2cccc(O)c21	> 100 µM (inactive)	> 100 µM (inactive)	> 100 µM (inactive)	> 100 µM	> 100 µM (inactive)	> 100 µM (inactive)	> 100 µM (inactive)	> 100 µM (inactive)	> 100 µM (inactive)	> 100 µM (inactive)	> 100 µM (inactive)	> 100 µM (inactive)	> 100 µM (inactive)	> 100 µM (inactive)	> 100 µM (inactive)	> 100 µM (inactive)	> 100 µM (inactive)	> 100 µM (inactive)	> 100 µM (inactive)	> 100 µM (inactive)
CC1=C(Br)C(=O)c2c(O)ccc(O)c2C1=O	1.7 µM (inactive)	0.0183 µM (active)	2.37 µM (inactive)	0.342 µM	0.0306 µM (active)	0.627 µM (active)	0.336 µM (active)	0.182 µM (active)	0.153 µM (active)	0.555 µM (active)	0.74 µM (active)	1.66 µM (inactive)	1.41 µM (inactive)	0.278 µM (active)	1.42 µM (inactive)	1.85 µM (inactive)	1.38 µM (inactive)	0.207 µM (active)	0.412 µM (active)	1.26 µM (inactive)
CC1=C(C(=O)Nc2ccccc2)C2(CCCCC2)C(C#N)=C(SCC(=O)Nc2ccc(Br)cc2)N1	4.56 µM (inactive)	1.46 µM (inactive)	2.15 µM (inactive)	4.23 µM	3.18 µM (inactive)	3.11 µM (inactive)	2.45 µM (inactive)	4.51 µM (inactive)	2.06 µM (inactive)	3.88 µM (inactive)	3.27 µM (inactive)	4.99 µM (inactive)	2.88 µM (inactive)	2.08 µM (inactive)	4.54 µM (inactive)	8.79 µM (inactive)	4.23 µM (inactive)	2.31 µM (inactive)	5.19 µM (inactive)	6.58 µM (inactive)
Cc1c(-c2ccc(-c3ccccc3F)cc2)nc2ccc(F)cc2c1C(=O)O [BREQUINAR SODIUM]	49.8 µM (inactive)	0.284 µM (active)	16 µM (inactive)	0.0566 µM	0.479 µM (active)	35.2 µM (inactive)	0.374 µM (active)	0.267 µM (active)	2 µM (inactive)	2.18 µM (inactive)	3.74 µM (inactive)	38.8 µM (inactive)	0.5 µM (active)	0.373 µM (active)	11.7 µM (inactive)	16.1 µM (inactive)	1.79 µM (inactive)	0.427 µM (active)	16.9 µM (inactive)	16.3 µM (inactive)
